Reference: patent US7075582B2, “Methods for identifying and using MarR family polypeptide binding compounds” (Paratek Pharmaceuticals, Inc., priority 2001, dated 2006)

How the values were obtained:
MarR [1] = target: T1, MarR (Escherichia coli, UniProt P27245); settings: salicylate at millimolar concentrations; cited from earlier work
MarR [2] = target: T1, MarR; settings: salicylate at millimolar concentrations; cited from earlier work; remark: listed apart in the source
[3] = target: MarR (wild type, Escherichia coli), one subunit of the MarR homodimer (E. coli); test: X-ray crystal structure, MarR-salicylate co-crystal

T1 sequence (P27245 whole entry): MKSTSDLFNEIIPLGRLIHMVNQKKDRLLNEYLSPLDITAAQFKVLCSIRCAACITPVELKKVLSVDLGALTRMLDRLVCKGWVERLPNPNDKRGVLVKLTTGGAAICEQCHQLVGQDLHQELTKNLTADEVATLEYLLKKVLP

O=C([O-])c1ccccc1O.[Na+] [sodium salicylate]
MarR activity in whole cells (MarR [1]): inhibit MarR activity
MarR activity in vitro (MarR [2]): inhibit MarR activity

MarR (wild type, Escherichia coli), one subunit of the MarR homodimer
buried surface area (N-/C-terminal hydrophobic core) [3]: 3570 Å^2
total buried surface area for the whole dimer [3]: 3700 Å^2
